Data set [1] has as its target neuronal nicotinic cholinergic channel receptor. As to the kind of experiment: [3H]-cytisine binding to neuronal nicotinic cholinergic channel receptors, crude synaptic membranes from whole rat brain. On the procedure:
Binding of [^3 H]-cytisine ([^3 H]-CYT) to nicotinic receptors was accomplished using crude synaptic membrane preparations from whole rat brain (Pabreza et al., Molecular Pharmacol., 1990, 39:9). Washed membranes were stored at -80° C. prior to use. Frozen aliquots were slowly thawed and resuspended in 20 volumes of buffer (containing: 120 mM NaCl, 5 mM KCl, 2 mM MgCl2, 2 mM CaCl2 and 50 mM Tris-Cl, pH 7.4 @4° C.). After centrifuging at 20,000×g for 15 minutes, the pellets were resuspended in 30 volumes of buffer. Homogenate (containing 125-150 μg protein) was added to triplicate tubes containing concentrations of test compound and [^3 H]-CYT (1.25 nM) in a final volume of 500 μL. Samples were incubated for 60 minutes at 4° C., then rapidly filtered through Whatman GF/B filters presoaked in 0.5% polyethylimine using 3×4 mL of ice-cold buffer. The filters are counted in 4 mL of Ecolume® (ICN).

The next data set relates to CD1 mice. Briefly: Elevated plus-maze, mouse (anxiolytic activity). The following applies: for Mouse EPM, improvement in performance at the dose range tested: doses in brackets, time in open arms, 5 min test. The class given is in vivo. The text has this:
(§1) The elevated plus-maze is a conflict test that probes anxiolytic activity of test compounds (Lister, Psychopharmacology, 1987, 92:180). It is based on the fact that exposure of an animal to an elevated open arm leads to an avoidance response considerably stronger than that evoked by exposure to an enclosed arm.
The apparatus required to perform this test in mice is made of plywood and consists of two open arms (17×8 cm) and two enclosed arms (17×8×15 cm) extending from a central platform (8×8 cm). It is mounted on a plywood base rising 39 cm above the floor. Mice are released on the central platform and the time spent in the open and enclosed arms is recorded during a 5 minute test period. The test compounds were administered to CD1 mice 15 minutes before the test.

A further data set relates to male Wistar rats. Briefly: Elevated plus-maze, rat (anxiolytic activity). The class given is in vivo. The following applies: doses in brackets; time in open arms.
Excerpt: as §1
The same protocol was applied in rats (male Wistar strain), but a larger maze was used (open arms 50×10 cm, enclosed arms 50×10×40 cm) raised 50 cm above the floor.

Another data set concerns Male CD-1 mice. Briefly: Analgesia testing, automated hot-plate (55° C.). The note with it: latency to tenth jump; morphine at 12, Example 3 at 19 umol/kg. The class given is in vivo, mouse. As for the experimental part: Analgesia was measured using an automated hot-plate analgesia monitor (model #AHP16AN, Omnitech Electronics, Inc., Columbus, Ohio). The temperature of the hot-plate was maintained at 55° C. Male CD-1 mice (Charles River, Portage, Mich.) weighing 30 to 35 g were used for all testing. Mice were placed on the hot-plate and the latency to jump (i.e., first 10 jumps) was recorded. Mice were removed from the apparatus either after ten jumps were made or a maximally-allowed time of 240 sec elapsed, whichever occurred first. The design of the apparatus allowed for testing of several animals (e.g., 8) at once. The latency (sec) until the tenth jump was used for statistical analysis. Data (Table 2) were statistically evaluated with ANOVA (StatView II™ program, Abacus Concepts, Inc., Berkeley, Calif.) and compared to the reference standard analgesic morphine.

Data set [2] concerns cardiac muscarinic receptors. The following applies: cited from earlier work.
Data set [3] relates to cortical muscarinic receptors. The note with it: cited from earlier work.
A further data set concerns parietotemporal cortex. The note with it: parietotemporal cortex of humans; cited from earlier work.
For data set [4] the following is noted: cited from earlier work.
The next data set has as its system nicotinic receptors. The following applies: chronic nicotine administration; cited from earlier work.
A further data set has as its system rats. The note with it: acutely- and chronically-administered, rats incl. aged; cited from earlier work.
In another data set the test system is cigarette smokers. The following applies: double-blind studies; cited from earlier work.
For data set [5] the following is noted: in vivo; cited from earlier work.
[6] abbreviates: [3H]-cytisine (1.25 nM), whole rat brain membranes, 4° C., 60 min.

Molecules are shown by their SMILES. Structures can show the parent of a compound that is named as a salt. Where two headings read alike, the source gives them in different places.

By Ki is commonly meant a measure of affinity in units of concentration, obtained from inhibition or displacement. Read a low Ki as tighter binding.

As to `Fc1ccc(OC[C@@H]2CCCN2)cc1F` [Example 13, 2(S)-(3,4-Difluorophenoxymethyl)pyrrolidine hydrochloride], the Ki in [1] (setting [6]) was 17.5 nM.
The compound `c1ccc(OC[C@@H]2CCCN2)cc1` [Example 21, 2(S)-(phenoxymethyl)pyrrolidine hydrochloride] came in with a Ki in data set [1] (setting [6]) of 108 nM.
For `Cl.O=[N+]([O-])c1cccc(OC[C@@H]2CCCN2)c1` [Example 1, 2(S)-(3-(Nitro)phenoxymethyl)pyrrolidine hydrochloride], in [1] (setting [6]), the inhibitory constant (Ki) is 2.9 nM. Besides, the “Mouse EPM, improvement in performance at the dose range tested” value in the data set with CD1 mice is “significant [0.62-1.9]”. Moreover, the “Rat EPM, improvement in performance at the dose range tested” value in the data set on male Wistar rats was “significant [0.19, 6.2]”.
Take `CN1CCC[C@H]1COc1cccc([N+](=O)[O-])c1` [Example 2, 1-Methyl-2(S)-(3-(nitro)phenoxymethyl)pyrrolidine hydrochloride]: the affinity in data set [1] (setting [6]), expressed as Ki, was 9 nM.
With `Fc1cccc(OC[C@@H]2CCCN2)c1F` [Example 11, 2(S)-(2,3-Difluorophenoxymethyl)pyrrolidine hydrochloride], in data set [1] (setting [6]), the affinity corresponds to a Ki of 74.3 nM.
On to `CN1CC[C@@H]1COc1cccc([N+](=O)[O-])c1` [Example 23, (R)-1-methyl-2-(3-(nitro)phenoxymethyl)azetidine hydrochloride], for which the Ki in data set [1] (setting [6]) amounted to 29 nM. This Ki is about 2.6-fold lower than that of the compound before.
Turning to `CN1CCCC1c1cccnc1` (single isomer, unassigned; (-)) [(-)-nicotine, reference compound], the affinity in data set [1] corresponds to a Ki of […]. In addition, the “Increase in time spent in the open arms of the maze vs saline” value in the data set with CD1 mice (0.62 and 1.9 μmol/kg, p<0.05, 15 minutes before test) is listed as “significant increase”. Also, the “Mouse EPM, improvement in performance at the dose range tested” value in the data set with CD1 mice was “significant [0.19-0.62]”. Moreover, in the data set with male Wistar rats, the “Rat EPM, improvement in performance at the dose range tested” value is “significant [1.9]”.
For `Fc1cccc(OC[C@@H]2CCCN2)c1` [Example 5, 2(S)-(3-Fluorophenoxymethyl)-pyrrolidine hydrochloride], in data set [1] (setting [6]), affinity was put at a Ki of 17.2 nM.
Same read-out and setting: next, `CN1CCC[C@H]1COc1cccc(F)c1F` [Example 12, 2(S)-(2,3-Difluorophenoxymethyl)-1-methylpyrrolidine hydrochloride]: 81.4 nM.
In turn, `Fc1cccc(OC[C@H]2CCCN2)c1` [Example 9, 2(R)-(3-Fluorophenoxymethyl)-pyrrolidine hydrochloride] registered a Ki in data set [1] (setting [6]) of 11.6 nM.
Take `O=[N+]([O-])c1cccc(OC[C@@H]2CCN2)c1` [Example 22, 2(S)-(3-(nitro)phenoxymethyl)azetidine methanesulfonate]: in data set [1] (setting [6]), the affinity, expressed as Ki, was 6.8 nM. Against the preceding compound, the Ki is about 1.7-fold lower.
For `CN1CCC[C@H]1COc1cccc(F)c1` [Example 6, 2(S)-(3-Fluorophenoxymethyl)-1-methyl-pyrrolidine hydrochloride], the affinity in data set [1] (setting [6]) corresponds to a Ki of 5.1 nM.
`CN1CCC[C@@H]1COc1cccc(F)c1` [Example 10, 2(R)-(3-Fluorophenoxymethyl)-1-methylpyrrolidine hydrochloride] yielded a Ki in [1] (setting [6]) of 90.7 nM.
`Cl.O=[N+]([O-])c1cccc(OC[C@H]2CCCN2)c1` [Example 3, 2(R)-(3-(nitro)phenoxymethyl)pyrrolidine hydrochloride] gave a Ki in data set [1] (setting [6]) of 2.5 nM. In addition, in the data set on Male CD-1 mice, the “Percent change from saline” value amounted to 60.7%.
`CN1CCC[C@@H]1COc1cccc([N+](=O)[O-])c1` [Example 4, (R)-1-Methyl-2-(3-(nitro)phenoxymethyl)pyrrolidine] had a Ki in data set [1] (setting [6]) of 132 nM.
`CN1CC[C@]23c4c5ccc(O)c4O[C@H]2[C@@H](O)C=C[C@H]3[C@H]1C5` [Morphine, reference compound]: the “Percent change from saline” value in the data set on Male CD-1 mice is recorded as 257%.
In data set [1] (setting [6]), `CN1CCC[C@H]1COc1cc(F)cc(F)c1` [Example 8, 2(S)-(3,5-Difluorophenoxymethyl)-1-methyl-pyrrolidine hydrochloride] yielded a Ki of 15.7 nM.
On to `CCN1C(=O)CC2(CCN(C)CC2)C1=O` [RS-86], for which the “Agonism at cardiac muscarinic receptors” value in [2] is recorded as “full agonist”. In [3], the “Agonism at cortical muscarinic receptors” value was “partial agonist”; the “Potency and selectivity for CNS receptors” value is “poor potency and lack of selectivity for CNS receptors”.
With `CN1CCC[C@H]1COc1cccc(C#N)c1` [Example 19, (S)-2-(3-cyanophenoxymethyl)-1-methylpyrrolidine hydrochloride], the Ki in data set [1] (setting [6]) is 64 nM.
In the case of `Fc1cc(F)cc(OC[C@@H]2CCCN2)c1` [Example 7, 2(S)-(3,5-Difluorophenoxymethyl)pyrrolidine hydrochloride], in data set [1] (setting [6]), the Ki stood at 22.3 nM. This Ki is about 2.9-fold lower than that of the compound before.
Same read-out and setting: the result for `CN1CCC[C@H]1COc1ccc(Cl)c(Cl)c1` [Example 16, 2(S)-(3,4-Dichlorophenoxymethyl)-1-methylpyrrolidine hydrochloride] reads 112 nM.
As to `N#Cc1cccc(OC[C@@H]2CCCN2)c1` [Example 18, (S)-2-(3-cyanophenoxymethyl)pyrrolidine hydrochloride], the affinity in data set [1] (setting [6]) corresponds to a Ki of 18 nM.
`CNC1(C)C2CCC(C2)C1(C)C` (stereo not drawn) [mecamylamine]: the “Effect on resting cortical perfusion” value in the data set with parietotemporal cortex is listed as “reduces resting cortical perfusion”.
As for `CN1CCC[C@H]1COc1cccc(Cl)c1` [Example 15, 2(S)-(3-Chlorophenoxymethyl)-1-methylpyrrolidine hydrochloride], in data set [1] (setting [6]), affinity was put at a Ki of 37.7 nM.
On to `CC(=O)Nc1cccc(OC[C@@H]2CCCN2)c1` [Example 17, (S)-2-(3-(acetamido)phenoxymethyl)pyrrolidine hydrochloride], for which, in data set [1] (setting [6]), the Ki is 142 nM. This Ki lies about 3.8-fold higher than the previous one.
With `CN1CCC[C@H]1c1cccnc1` [nicotine], the Oral bioavailability result in data set [4] was “poor oral bioavailability”. In the data set with nicotinic receptors, the “Up-regulation of the number of receptors” value is listed as 50-100%. In addition, the “Effect on cognitive function” value in the data set with rats is “enhances cognitive function in rats”. In addition, in the data set with cigarette smokers, the “Suppressing or preventing signs and symptoms of withdrawal vs placebo” value is “far superior to a placebo”. The Anxiolytic properties entry in data set [5] is given as “anxiolytic properties”.
Compound `CN1CCC[C@H]1COc1ccc(F)c(F)c1` [Example 14, 2(S)-(3,4-Difluorophenoxymethyl)-1-methylpyrrolidine hydrochloride] had a Ki in [1] (setting [6]) of 18 nM.

These data come from patent US5472958A, “2-((nitro)phenoxymethyl) heterocyclic compounds that enhance cognitive function” (Abbott Laboratories, priority 1994, dated 1995).
